According to ChEMBL document CHEMBL1135157, “Focused library approach for identification of new N-acylphenylalanines as VCAM/VLA-4 antagonists” (Bioorg Med Chem Lett, 2002):

Legend:
[1] = Inhibition of Very late antigen 4/vascular cell adhesion molecule 1 inhibition activity in an ELISA assay
[2] = Inhibition of Very late antigen 4/vascular cell adhesion molecule 1 activity in ELISA assay, at 10 nM concentration
Integrin alpha-4/beta-1 = Integrin alpha-4/beta-1 (Homo sapiens, UniProt P05556+P13612); assay: Inhibition of Very late antigen 4 of Ramos cell adhesion to vascular cell adhesion molecule 1; assay type: cell-based
Sequence of Integrin alpha-4/beta-1 (P05556 whole entry): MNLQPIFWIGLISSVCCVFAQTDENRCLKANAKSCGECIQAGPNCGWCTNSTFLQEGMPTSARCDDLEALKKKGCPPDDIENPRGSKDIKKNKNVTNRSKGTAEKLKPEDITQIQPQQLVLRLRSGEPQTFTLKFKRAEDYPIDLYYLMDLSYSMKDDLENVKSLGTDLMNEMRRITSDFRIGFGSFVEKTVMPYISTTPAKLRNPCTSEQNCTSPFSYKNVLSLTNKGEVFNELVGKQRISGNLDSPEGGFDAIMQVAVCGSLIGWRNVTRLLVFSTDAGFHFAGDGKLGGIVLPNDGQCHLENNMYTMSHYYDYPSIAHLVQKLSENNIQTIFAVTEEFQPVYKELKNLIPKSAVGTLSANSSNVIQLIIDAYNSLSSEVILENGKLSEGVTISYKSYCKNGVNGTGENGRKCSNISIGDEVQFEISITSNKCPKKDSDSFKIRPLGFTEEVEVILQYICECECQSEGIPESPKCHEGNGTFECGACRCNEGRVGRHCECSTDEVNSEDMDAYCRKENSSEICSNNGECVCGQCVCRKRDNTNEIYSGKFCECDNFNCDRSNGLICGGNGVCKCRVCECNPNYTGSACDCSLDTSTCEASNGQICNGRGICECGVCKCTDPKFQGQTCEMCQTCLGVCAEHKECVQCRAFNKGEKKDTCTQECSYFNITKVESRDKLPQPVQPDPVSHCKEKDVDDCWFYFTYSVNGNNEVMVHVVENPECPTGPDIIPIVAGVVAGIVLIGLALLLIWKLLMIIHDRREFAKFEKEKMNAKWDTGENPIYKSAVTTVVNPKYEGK
Sequence of Integrin alpha-4/beta-1 (P13612 whole entry): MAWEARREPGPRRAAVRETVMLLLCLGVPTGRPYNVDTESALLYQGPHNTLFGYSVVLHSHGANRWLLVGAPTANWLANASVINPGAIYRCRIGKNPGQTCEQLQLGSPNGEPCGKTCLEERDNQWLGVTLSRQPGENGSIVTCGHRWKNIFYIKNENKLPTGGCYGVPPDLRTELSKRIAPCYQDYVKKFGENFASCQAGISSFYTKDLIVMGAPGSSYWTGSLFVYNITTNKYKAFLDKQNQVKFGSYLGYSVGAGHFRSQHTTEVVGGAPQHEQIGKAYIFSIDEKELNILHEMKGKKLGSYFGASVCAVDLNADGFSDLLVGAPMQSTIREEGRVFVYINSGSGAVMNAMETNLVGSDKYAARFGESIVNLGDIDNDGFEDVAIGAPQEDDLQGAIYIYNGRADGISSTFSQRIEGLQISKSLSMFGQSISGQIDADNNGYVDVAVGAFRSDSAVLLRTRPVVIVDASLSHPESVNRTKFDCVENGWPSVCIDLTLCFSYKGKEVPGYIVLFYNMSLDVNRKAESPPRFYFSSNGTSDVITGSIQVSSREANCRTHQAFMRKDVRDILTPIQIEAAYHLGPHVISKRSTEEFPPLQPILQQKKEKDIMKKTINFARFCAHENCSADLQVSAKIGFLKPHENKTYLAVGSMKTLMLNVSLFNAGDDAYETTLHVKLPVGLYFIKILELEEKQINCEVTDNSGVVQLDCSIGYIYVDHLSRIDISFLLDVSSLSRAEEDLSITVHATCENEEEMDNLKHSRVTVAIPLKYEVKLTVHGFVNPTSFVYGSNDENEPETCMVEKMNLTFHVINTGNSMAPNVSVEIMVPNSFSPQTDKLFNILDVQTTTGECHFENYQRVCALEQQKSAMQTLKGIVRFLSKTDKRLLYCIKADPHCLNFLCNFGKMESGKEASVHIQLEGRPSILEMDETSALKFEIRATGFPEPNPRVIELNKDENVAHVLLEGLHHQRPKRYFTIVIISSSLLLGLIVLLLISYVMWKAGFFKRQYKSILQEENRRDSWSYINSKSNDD

IC50 [1] | inhibition [2] | IC50 (Integrin alpha-4/beta-1) | SMILES
3 nM | 69% | – | CC1(C(=O)N[C@@H](Cc2ccc(NC(=O)c3ccnc4ccccc34)cc2)C(=O)O)CC1(Cl)Cl (some centres undefined)
– | 12% | – | O=C(Nc1ccc(C[C@H](NC(=O)C2CC2)C(=O)O)cc1)c1ccnc2ccccc12
1.4 nM | 73% | – | COc1ccc(C2(C(=O)N[C@@H](Cc3ccc(NC(=O)c4ccnc5ccccc45)cc3)C(=O)O)CCCC2)cc1
6.4 nM | 53% | – | O=C(Nc1ccc(C[C@H](NC(=O)C2(c3ccc(Cl)cc3)CCCC2)C(=O)O)cc1)c1ccnc2ccccc12
1.2 nM | 77% | – | COc1ccc(C2(C(=O)N[C@@H](Cc3ccc(NC(=O)c4ccnc5ccccc45)cc3)C(=O)O)CCCCC2)cc1
– | 23% | – | CC(C)(C)C(=O)N[C@@H](Cc1ccc(NC(=O)c2ccnc3ccccc23)cc1)C(=O)O
– | 25% | – | O=C(Nc1ccc(C[C@H](NC(=O)C2CCCC2)C(=O)O)cc1)c1ccnc2ccccc12
2 nM | 61% | – | CC(=O)N1CCC[C@H]1C(=O)N[C@@H](Cc1ccc(NC(=O)c2ccnc3ccccc23)cc1)C(=O)O
– | 17% | – | O=C(Nc1ccc(C[C@H](NC(=O)C2CCC2)C(=O)O)cc1)c1ccnc2ccccc12
2.3 nM | 51% | – | C[C@H]1CC[C@@](C)(C(=O)N[C@@H](Cc2ccc(NC(=O)c3ccnc4ccccc34)cc2)C(=O)O)C1(C)C
5.6 nM | 67% | – | O=C(Nc1ccc(C[C@H](NC(=O)C2(c3ccccc3)CCCCC2)C(=O)O)cc1)c1ccnc2ccccc12
2.7 nM | – | 590 nM | O=C(Nc1ccc(C[C@H](NC(=O)C2(c3ccccc3)CCCC2)C(=O)O)cc1)c1ccnc2ccccc12 (stereo in doubt; 56)
7 nM | 49% | – | CC1(C(=O)N[C@@H](Cc2ccc(NC(=O)c3ccnc4ccccc34)cc2)C(=O)O)CCCCC1
7.6 nM | 64% | – | N#CC1(C(=O)N[C@@H](Cc2ccc(NC(=O)c3ccnc4ccccc34)cc2)C(=O)O)CCCC1
– | 37% | – | O=C(Nc1ccc(C[C@H](NC(=O)C2CCCCC2)C(=O)O)cc1)c1ccnc2ccccc12
9.1 nM | 63% | – | Cc1ccc(C2(C(=O)N[C@@H](Cc3ccc(NC(=O)c4ccnc5ccccc45)cc3)C(=O)O)CCCC2)cc1
3.4 nM | – | – | O=C(Nc1ccc(C[C@H](NC(=O)C2(c3ccccc3)CCCC2)C(=O)O)cc1)c1ccnc2ccccc12 (stereo in doubt; 46) [listing 1 of 2 here]
– | 68% | – | O=C(Nc1ccc(C[C@H](NC(=O)C2(c3ccccc3)CCCC2)C(=O)O)cc1)c1ccnc2ccccc12 (stereo in doubt; 46) [listing 2 of 2 here]

Second part, the compound before the results:

SMILES | IC50 [1] | inhibition [2] | IC50 (Integrin alpha-4/beta-1)
CC1(C)C(C(=O)N[C@@H](Cc2ccc(NC(=O)c3ccnc4ccccc34)cc2)C(=O)O)C1(C)C | – | 33% | –
O=C(N[C@@H](Cc1ccc(NC(=O)c2ccnc3ccccc23)cc1)C(=O)O)c1ccccc1F | – | 42% | –
O=C(Nc1ccc(C[C@H](NC(=O)C2(c3ccccc3)CCCC2)C(=O)O)cc1)c1ccccc1 | 23 nM | – | –
O=C(N[C@@H](Cc1ccc(NC(=O)c2ccnc3ccccc23)cc1)C(=O)O)c1ccccc1[N+](=O)[O-] | 4.7 nM | 73% | –
Cc1cccc(C)c1C(=O)N[C@@H](Cc1ccc(NC(=O)c2c(Cl)cccc2Cl)cc1)C(=O)O | 1.2 nM | – | 81 nM
O=C(Nc1ccc(C[C@H](NC(=O)C2(c3ccccc3)CCCC2)C(=O)O)cc1)c1c(Cl)cccc1Cl | 1.7 nM | – | 98 nM
O=C(N[C@@H](Cc1ccc(NC(=O)c2ccnc3ccccc23)cc1)C(=O)O)c1ccccc1Br | 2.2 nM | 81% | –
CCC(C)(C)C(=O)N[C@@H](Cc1ccc(NC(=O)c2ccnc3ccccc23)cc1)C(=O)O | – | 30% | –
O=C(Nc1ccc(C[C@H](NC(=O)C2(c3ccccc3)CC2)C(=O)O)cc1)c1ccnc2ccccc12 | – | 19% | –
O=C(Nc1ccc(C[C@H](NC(=O)C2(c3ccccc3)CCCC2)C(=O)O)cc1)c1cccnc1Oc1ccccc1 | 6.1 nM | – | 2400 nM
CC(=O)N1CSC[C@H]1C(=O)N[C@@H](Cc1ccc(NC(=O)c2ccnc3ccccc23)cc1)C(=O)O | – | 37% | –
O=C(Nc1ccc(C[C@H](NC(=O)[C@@H]2CCCN2C(=O)c2ccccc2)C(=O)O)cc1)c1ccnc2ccccc12 | – | 18% | –
O=C(Nc1ccc(C[C@H](NC(=O)C23CC4CC(CC(C4)C2)C3)C(=O)O)cc1)c1ccnc2ccccc12 | 2.4 nM | 72% | –
O=C(Nc1ccc(C[C@H](NC(=O)[C@@H]2CCCN2C(=O)CCc2ccccc2)C(=O)O)cc1)c1ccnc2ccccc12 | 2.1 nM | 65% | –
O=C(N[C@@H](Cc1ccc(NC(=O)c2ccnc3ccccc23)cc1)C(=O)O)c1c(F)cccc1F | 1.7 nM | 64% | –
O=C(Nc1ccc(C[C@H](NC(=O)C2(c3ccccc3)CCCC2)C(=O)O)cc1)c1nccc2ccccc12 | 9.8 nM | – | 1300 nM
O=C(Nc1ccc(C[C@H](NC(=O)[C@@H]2CSCN2C(=O)c2ccccc2)C(=O)O)cc1)c1ccnc2ccccc12 | – | 24% | –

SMILES | IC50 [1] | inhibition [2] | IC50 (Integrin alpha-4/beta-1)
O=C(Nc1ccc(C[C@H](NC(=O)C2CCc3ccccc3C2)C(=O)O)cc1)c1ccnc2ccccc12 (some centres undefined) | – | 15% | –
Cc1cc(C)c(C(=O)N[C@@H](Cc2ccc(NC(=O)c3ccnc4ccccc34)cc2)C(=O)O)c(C)c1 | – | 45% | –
O=C(N[C@@H](Cc1ccc(NC(=O)c2ccnc3ccccc23)cc1)C(=O)O)c1ccccc1Cl | 2.9 nM | 68% | –
CCCCC(C)(CC)C(=O)N[C@@H](Cc1ccc(NC(=O)c2ccnc3ccccc23)cc1)C(=O)O (some centres undefined) | 8.2 nM | 49% | –
O=C(Nc1ccc(C[C@H](NC(=O)C2(c3ccccc3)CCCC2)C(=O)O)cc1)c1ccccc1C(F)(F)F | 10 nM | – | –
CC(C)C(C(=O)N[C@@H](Cc1ccc(NC(=O)c2ccnc3ccccc23)cc1)C(=O)O)c1ccccc1 (some centres undefined) | 4.6 nM | 73% | –
O=C(Nc1ccc(C[C@H](NC(=O)[C@@H]2CSCN2C(=O)CCc2ccccc2)C(=O)O)cc1)c1ccnc2ccccc12 | 1.9 nM | 53% | –
O=C(Nc1ccc(C[C@H](NC(=O)[C@H]2CCC(=O)N2Cc2ccccc2)C(=O)O)cc1)c1c(Cl)cccc1Cl | 0.37 nM | – | 12 nM
Cc1cccc(C(=O)N[C@@H](Cc2ccc(NC(=O)c3ccnc4ccccc34)cc2)C(=O)O)c1C | – | 31% | –
O=C(N[C@@H](Cc1ccc(NC(=O)c2ccnc3ccccc23)cc1)C(=O)O)C(=O)c1ccccc1 | – | 13% | –
Cc1noc(C)c1C(=O)N[C@@H](Cc1ccc(NC(=O)c2ccnc3ccccc23)cc1)C(=O)O | – | 46% | –
Cc1cccc(C)c1C(=O)N[C@@H](Cc1ccc(NC(=O)c2ccnc3ccccc23)cc1)C(=O)O | 2.5 nM | 74% | –
O=C(CCc1ccccc1)N[C@@H](Cc1ccc(NC(=O)c2ccnc3ccccc23)cc1)C(=O)O | – | 12% | –
O=C(N[C@@H](Cc1ccc(NC(=O)c2ccnc3ccccc23)cc1)C(=O)O)c1ccccc1 | – | 19% | –
CCC(C(=O)N[C@@H](Cc1ccc(NC(=O)c2ccnc3ccccc23)cc1)C(=O)O)c1ccccc1 (some centres undefined) | 5.8 nM | 49% | –
O=C(N[C@@H](Cc1ccc(NC(=O)c2ccnc3ccccc23)cc1)C(=O)O)c1cccnc1Cl | 6.6 nM | 61% | –
